Assay results taken from patent publication US12233081B2, “Hygromycin a compounds and methods of treating spirochete diseases” (priority 2018, dated 2025).
≈ marks a conversion by molar mass, not a printed value.

Legend:
Borrelia bavariensis = assay: microbroth dilution MIC; assay type: cell-based; conditions: Borreliella bavariensis
Excerpt: (§1) AH MIC testing of bacteria followed the Clinical and Laboratory Standards Institute (CLSI) guidelines for antimicrobial testing of aerobic, bacteria (Methods for Dilution Antimicrobial Susceptibility Tests for Bacteria that Grow Aerobically; Approved Standard—Tenth Edition, M07-A10; Performance Standards for Antimicrobial Susceptibility Testing; Twenty-fifth Informational Supplement, M100-S25), and guidelines for antimicrobial testing of anaerobic bacteria (Methods for Antimicrobial Susceptibility Testing of Anaerobic Bacteria, 8th Edition. M11-A8). Compounds of the invention can also be tested for activity as described herein.
(§2) Briefly, the microbroth dilution MIC method was used to quantitatively measure the in vitro antibacterial activity of hygromycin A against the given bacterial isolates shown in the table below. S. aureus, E. coli and P. aeruginosa were grown in cation-adjusted Mueller-Hinton broth, anaerobes were grown in Schaedler Anaerobe Media, Borrelia species were grown in BSK-II medium. Bacteria from liquid cultures were diluted into the assay plate to achieve 5×10^5 CFU/mL. Assays plates were prepared by 2-fold dilution of compound across the plate and included a positive growth control. […] Borrelia species were incubated in a microaerophilic chamber at 34° C. for 5-7 days and scored visually for medium color change from pink to yellow of the phenol red present in the medium. The lowest concentration of antibiotics that pre vented color change was interpreted, as the MIC.

Borrelia burgdorferi = assay: microbroth dilution MIC; assay type: cell-based; conditions: Borreliella burgdorferi
Excerpt: as §1, §2

P. aeruginosa = assay: microbroth dilution MIC; assay type: cell-based; conditions: Pseudomonas aeruginosa
Excerpt: as §1, §2

Enterococcus faecalis = assay: microbroth dilution MIC; assay type: cell-based
Excerpt: as §1, §2

Bacteroides fragilis = assay: microbroth dilution MIC; assay type: cell-based
Excerpt: as §1, §2

Borrelia garinii = assay: microbroth dilution MIC; assay type: cell-based; conditions: Borreliella garinii
Excerpt: as §1, §2

Borrelia turcica = assay: microbroth dilution MIC; assay type: cell-based
Excerpt: as §1, §2

Borrelia afzelii = assay: microbroth dilution MIC; assay type: cell-based; conditions: Borreliella afzelii
Excerpt: as §1, §2

Lactobacillus reuteri = assay: microbroth dilution MIC; assay type: cell-based; conditions: Limosilactobacillus reuteri
Excerpt: as §1, §2

Bifidobacterium longum = assay: microbroth dilution MIC; assay type: cell-based
Excerpt: as §1, §2

E. coli = assay: microbroth dilution MIC; assay type: cell-based; conditions: Escherichia coli
Excerpt: as §1, §2

S. aureus = assay: microbroth dilution MIC; assay type: cell-based; conditions: Staphylococcus aureus
Excerpt: as §1, §2

Treponema pallidum = assay: microbroth dilution MIC; assay type: cell-based
gut microbiome = gut microbiome 16S rRNA sequencing of stool of infected, treated mice; conditions: for Bacteroidaceae change in percent relative abundance / Streptococcaceae change in percent relative abundance: 50 mg/kg
[1] = IP 50 mg/kg every 12 hours for 5 days
[2] = oral 50 mg/kg every 12 hours for 5 days
[3] = oral 50 mg/kg every 12 hours for 5 days, listed as Hyg

## CC(=O)[C@H]1O[C@@H](Oc2ccc(/C=C(\C)C(=O)N[C@@H]3[C@H](O)[C@@H](O)[C@H]4OCO[C@H]4[C@@H]3O)cc2O)[C@@H](O)[C@@H]1O [Hygromycin A]
Borrelia bavariensis
  MIC: 0.25 mg/L (≈ 0.489 µM)
Borrelia burgdorferi
  MIC: 0.12 mg/L (≈ 0.235 µM)
P. aeruginosa
  MIC: > 1000 mg/L
Enterococcus faecalis
  MIC: 128 mg/L (≈ 250 µM)
Bacteroides fragilis
  MIC: 128 mg/L (≈ 250 µM)
Borrelia garinii
  MIC: 0.25 mg/L (≈ 0.489 µM)
Borrelia turcica
  MIC: 0.25 mg/L (≈ 0.489 µM)
Borrelia afzelii
  MIC: 0.25 mg/L (≈ 0.489 µM)
Lactobacillus reuteri
  MIC: 32 mg/L (≈ 62.6 µM)
Bifidobacterium longum
  MIC: 8 mg/L (≈ 15.6 µM)
E. coli
  MIC: 1000 mg/L (≈ 1960 µM)
S. aureus
  MIC: 32 mg/L (≈ 62.6 µM)
Treponema pallidum
  MIC: 0.03 mg/L (≈ 0.0587 µM)
Gut microbiome; [1]
  Brucellaceae change in percent relative abundance: 0.000%
  Francisellaceae change in percent relative abundance: −0.001%
Gut microbiome; [2]
  Aerococcaceae change in percent relative abundance: 0.000%
  Anaerolineaceae change in percent relative abundance: 0.000%
  Anaeroplasmataceae change in percent relative abundance: −0.016%
  Anaplasmataceae change in percent relative abundance: 0.000%
  Aspergillaceae change in percent relative abundance: 0.000%
  Asteraceae change in percent relative abundance: 0.000%
  Bacillaceae change in percent relative abundance: −0.009%
  Bacillales change in percent relative abundance: −0.092%
  Bifidobacteriaceae change in percent relative abundance: 0.013%
  Brucellaceae change in percent relative abundance: 0.000%
  Camobacteriaceae change in percent relative abundance: 0.005%
  Chitinophagaceae change in percent relative abundance: 0.000%
  Christensenellaceae change in percent relative abundance: 0.000%
  Clostridiaceae change in percent relative abundance: −5.257%
  Clostridiales change in percent relative abundance: −0.174%
  Clostridiales family xi. incertae sedis change in percent relative abundance: −0.032%
  Clostridiales family xiii. incertae sedis change in percent relative abundance: −0.007%
  Coriobacteriaceae change in percent relative abundance: −0.038%
  Corynebacteriaceae change in percent relative abundance: 0.000%
  Cytophagaceae change in percent relative abundance: −0.001%
  Deferribacteraceae change in percent relative abundance: −1.462%
  Defluviitaleaceae change in percent relative abundance: −0.002%
  Desulfobacteraceae change in percent relative abundance: −0.001%
  Enterobacteriaceae change in percent relative abundance: −0.026%
  Enterococcaceae change in percent relative abundance: 6.546%
  Erysipelotrichaceae change in percent relative abundance: 1.506%
  Eubacteriaceae change in percent relative abundance: −6.405%
  Fabaceae change in percent relative abundance: 0.000%
  Flavobacteriaceae change in percent relative abundance: −0.001%
  Francisellaceae change in percent relative abundance: 0.000%
  Fusobacteriaceae change in percent relative abundance: 0.000%
  Gammaproteobacteria change in percent relative abundance: −0.025%
  Gloeobacteraceae change in percent relative abundance: −0.013%
  Gracilibacteraceae change in percent relative abundance: −0.072%
  Halomonadaceae change in percent relative abundance: 0.000%
  Hylidae change in percent relative abundance: 0.000%
  Kopriimonadaceae change in percent relative abundance: 0.000%
  Lachnospiraceae change in percent relative abundance: −8.372%
  Lactobacillaceae change in percent relative abundance: 22.074%
  Leuconostocaceae change in percent relative abundance: 0.000%
  Methylobacteriaceae change in percent relative abundance: 0.000%
  Microbacteriaceae change in percent relative abundance: 0.000%
  Mucoraceae change in percent relative abundance: 0.000%
  Nostocaceae change in percent relative abundance: 0.000%
  Onagraceae change in percent relative abundance: 0.000%
  Oscillatoriales change in percent relative abundance: 0.001%
  Oscillospiraceae change in percent relative abundance: −0.009%
  Paenibacillaceae change in percent relative abundance: −0.002%
  Pasteurellaceae change in percent relative abundance: 0.000%
  Pelobacteraceae change in percent relative abundance: 0.000%
  Peptococcaceae change in percent relative abundance: −0.835%
  Peptoniphilaceae change in percent relative abundance: 0.000%
  Peptostreptococcaceae change in percent relative abundance: −0.095%
  Physalacriaceae change in percent relative abundance: 0.000%
  Poaceae change in percent relative abundance: 0.007%
  Polyangiaceae change in percent relative abundance: 0.000%
  Porphyromonadaceae change in percent relative abundance: −23.435%
  Prevotellaceae change in percent relative abundance: −0.285%
  Pseudomonadaceae change in percent relative abundance: 0.000%
  Rhizobiaceae change in percent relative abundance: 0.000%
  Rhodobacteraceae change in percent relative abundance: 0.000%
  Rikenellaceae change in percent relative abundance: −4.391%
  Ruminococcaceae change in percent relative abundance: −1.494%
  Sphingomonadaceae change in percent relative abundance: 0.000%
  Spirochaetaceae change in percent relative abundance: −0.086%
  Spiroplasmataceae change in percent relative abundance: −0.093%
  Staphylococcaceae change in percent relative abundance: 0.001%
  Thermoanaerobacteraceae change in percent relative abundance: −0.010%
  Veillonellaceae change in percent relative abundance: 0.002%
  Verrucomicrobiaceae change in percent relative abundance: −0.017%
  Xanthomonadaceae change in percent relative abundance: 0.000%
  increases in Enterococcaceae or Enterobacteriaceae: did not lead to increases
  mice that maintained Bacteroidaceae: 1/5
  mice with decreased Bacteroidaceae: 3/5
  mice with increased Bacteroidaceae: 1/5
  Bacteroidaceae change in percent relative abundance: −8.5%
  Streptococcaceae change in percent relative abundance: 31.09%
Gut microbiome; [3]
  Bacteroidaceae change in percent relative abundance: −8.462%
  Streptococcaceae change in percent relative abundance: 31.098%
